Assay results as given in PMC7414031, “Correlation between hemolytic activity, cytotoxicity and systemic in vivo toxicity of synthetic antimicrobial peptides” (Scientific Reports, 2020).
Converted amounts (≈) assume the structure as drawn. Square brackets hold non-standard residues; d marks the D form. Peptide text beside a SMILES is read from it. N(1-naphthylmethyl)Gly = O=C(O)CNCc1cccc2ccccc12; Nphe = O=C(O)CNCc1ccccc1; NBuGly = CCCCNCC(=O)O

Legend:
in vitro [1] = type: cell-based, human; conditions: human
Summary of the method: (§1)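 Washed heparinized erythrocytes (~5 × 10^8 RBC/mL in PBS) incubated 1 h at 37 °C with peptides in serial 1:1 dilutions (150 to 1.2 µM final). Haemoglobin release read at 405 nm in supernatant; % haemolysis relative to 1% Triton X-100 (100%) and PBS diluent (0%).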

human erythrocytes = assay: in vitro; type: cell-based; conditions: for IC10 haemolysis: human erythrocytes; for IC50: red cells of human
Summary of the method: as §1

in vitro [2] = type: cell-based, dog; conditions: dog
Summary of the method: as §1

canine erythrocytes = assay: in vitro; type: cell-based, dog; conditions: for IC10 haemolysis: canine erythrocytes; for IC50: red cells of canine
Summary of the method: as §1

in vitro [3] = type: cell-based, rat (Sprague–Dawley); conditions: Sprague-Dawley, rat
Summary of the method: as §1

rat erythrocytes = assay: in vitro; type: cell-based, rat (Sprague–Dawley); conditions: for IC10 haemolysis: rat erythrocytes; for IC50: red cells of rat
Summary of the method: as §1

in vitro [4] = type: cell-based, bovine; conditions: bovine
Summary of the method: as §1

HaCaT cells = type: cell-based, human; conditions: 1 h
Protocol: (§2) An immortalised human keratinocyte (HaCaT) cell line (Gift from David Gram Naym at Bispebjerg Hospital, Denmark), a human liver cancer cell line (HepG2; ATCC HB-8065) and a human epithelial cervical cancer cell line (HeLa; ATCC CCL-2) were cultured to ∼90% confluence after 21–25 h of growth under standard conditions (5% CO2 at 37 °C). Cells were cultured in Dulbecco’s Modified Eagle’s Medium supplemented with 10% (v/v) fetal bovine serum (FBS). All culture media were supplemented with penicillin (100 IU/mL) and streptomycin (100 μg/mL). All cell media and supplements were obtained from Sigma-Aldrich (St. Louis, MO, United States). The 96-well plates were supplied by Corning Costar (Sigma-Aldrich, Brøndby, Denmark). Cell viability assessment was performed on cell monolayers grown to ∼90% confluence in 96-well plates by using the MTS/PMS assay as previously described. Briefly, the adhered cells were washed with PBS solution (37 °C) (ThermoFisher Scientific, Roskilde) and exposed for 1 h at 37 °C to 100 μL of peptides dissolved in the medium also used for culturing of the cell line (at concentrations in the range 0–1,000 μg/mL). The cells were subsequently washed twice with 37 °C PBS and then 100 μL of an MTS/PMS solution in media, consisting of 240 μg/mL MTS (Promega, Madison, WI, United States) and 2.4 mg/mL PMS (Promega, Madison, WI, United States), was added to the cells, which then were incubated for 1 h at 37 °C protected from light. A plate reader (SpectraMax i3X; Molecular devices, San Jose, CA) was used to measure the absorbance at 492 nm. The relative viability was calculated by using 0.2% (w/v) sodium dodecyl sulfate (SDS) as the positive control, while cells exposed to medium without test compound were used as the negative control.

HepG2 cells = type: cell-based, human; conditions: 1 h
Protocol: as §2

[5] = tested on: Staphylococcus pseudintermedius; conditions: cited from earlier work; for S.p. MIC: Staphylococcus pseudintermedius, Table S5, in µM
Staphylococcus aureus = tested on: Staphylococcus aureus; design: method as in PMID 30842436; conditions: cited from earlier work
Pseudomonas aeruginosa = tested on: Pseudomonas aeruginosa; design: method as in PMID 30842436; conditions: cited from earlier work
HeLa cells = type: cell-based, human; conditions: 1 h
Protocol: as §2

[6] = Dose-ranging intravenous toxicity study in rats; type: in vivo, rat (WistarHan); conditions: rat
Protocol: All animals were injected with a single dose of 0.5 mL (2 mL/kg body weight) and it was slowly administered over 2 min and 10 s. Shorter cationic tripeptides[4] and synthetic AMPs[72] have previously been evaluated employing the intravenous route. It was an interesting observation that the animals survived the systemic tail vein injection seemingly unaffected. This observation is in contrast to related synAMPs investigated as intravenous antibiotics which induced acute toxicity and paralysis at higher concentrations.

[7] = at in vivo dosing concentrations
Protocol: (§3) To further address the actual correlation of the in vitro observations to an in vivo situation, three compounds were selected for animal studies. […] Peptides where chosen to include compounds with ranging antibacterial activity, residue composition, hydrophobicity and in vitro mammalian toxicity, deliberately excluding compounds too hydrophobic and too toxic (50% > lysis at 150 µM in vitro against rats and human). […] All the compounds were tested at the same concentrations 0, 0.01 and 1.0 mg/kg rat.
(§4) The compounds were formulated in sterile PBS (tablets, Medicago, Sweden), sonicated and sterile filtered through a Millex-GV filter (0.22 µm pore size, Ø 13 mm, Merck) before use. […] Doses were 0 (vehicle control), 0.01 and 1.0 mg/kg rat).

bovine erythrocytes = assay: in vitro; type: cell-based; conditions: bovine erythrocytes
Summary of the method: as §1

physchem = conditions: PBS
Protocol: as §3, §4

CCCCN(CC(=O)N[C@@H](CCCCN)C(=O)N[C@@H](CCCCN)C(=O)N[C@@H](CCCCN)C(N)=O)C(=O)CN(Cc1cccc2ccccc12)C(=O)CN(Cc1ccccc1)C(=O)CNCc1cccc2ccccc12 [Compound 2, (N1-Nal)Gly-(N-Phe)Gly-(N1-Nal)Gly-(N-Bu)Gly-Lys-Lys-Lys] (H-[N(1-naphthylmethyl)Gly][Nphe][N(1-naphthylmethyl)Gly][NBuGly]KKK-NH2)
hemolysis at 1 h, 150 µM (in vitro [1]): 78.1% | Haemolytic activity (in words) (human erythrocytes): amongst the top five most haemolytic compounds | IC10 haemolysis (human erythrocytes): 11.2 µM | IC50 (human erythrocytes): 40 µM | hemolysis at 1 h, 150 µM (in vitro [2]): 100% | IC10 haemolysis (canine erythrocytes): 12.8 µM | IC50 (canine erythrocytes): 32 µM | hemolysis at 1 h, 150 µM (in vitro [3]): 100% | IC10 haemolysis (rat erythrocytes): 20.3 µM | IC50 (rat erythrocytes): 35.1 µM | hemolysis at 1 h, 150 µM (in vitro [4]): < 8% | IC50 (HaCaT cells): 89 µM | IC50 (HepG2 cells): 355 µM | S.p. MIC [5]: 7.6 µM | MIC against Staphylococcus pseudintermedius [5]: 8 µg/mL (≈ 7.57 µM) | MIC against Staphylococcus aureus (Staphylococcus aureus): 16 µg/mL (≈ 15.1 µM) | MIC against Pseudomonas aeruginosa (Pseudomonas aeruginosa): 32 µg/mL (≈ 30.3 µM)

CC(C)C[C@@H](NC(=O)[C@@H](Cc1ccc2ccccc2c1)NC(=O)[C@@H](Cc1ccccc1)NC(=O)[C@H](N)Cc1ccc2ccccc2c1)C(=O)N[C@@H](CCCCN)C(=O)N[C@@H](CCCCN)C(=O)N[C@@H](CCCCN)C(N)=O [Compound 4, (2-Nal)Ala-Phe-(2-Nal)Ala-Leu-Lys-Lys-Lys] (HELM PEPTIDE1{[N[C@H](Cc1ccc2ccccc2c1)C(=O)[*:2]].[dF].[O=C([C@@H](Cc1ccc2ccccc2c1)N[*:1])[*:2]].[dL].K.K.K.[am]}$$$$V2.0)
hemolysis at 1 h, 150 µM (in vitro [1]): < 8% | IC10 haemolysis (human erythrocytes): > 150 µM | IC50 (human erythrocytes): > 150 µM | hemolysis at 1 h, 150 µM (in vitro [2]): < 8% | IC10 haemolysis (canine erythrocytes): > 150 µM | IC50 (canine erythrocytes): > 150 µM | hemolysis at 1 h, 150 µM (in vitro [3]): < 8% | IC10 haemolysis (rat erythrocytes): > 150 µM | IC50 (rat erythrocytes): > 150 µM | hemolysis at 1 h, 150 µM (in vitro [4]): < 8% | IC50 (HaCaT cells): 433 µM | IC50 (HeLa cells): 783 µM | Clinical signs of discomfort after injection ([6]; i.v. tail vein, high dose (1 mg/mL), two animals, after initial 30 min recovery): less mobility and reactivity to stimuli | Release of haemoglobin in vivo ([6]; i.v., high dose, 3 h): slightly elevated release of haemoglobin | Adverse effects at 8 h after injection ([6]; i.v., high dose, 8 h): no adverse effects were observed | Bilirubin concentration ([6]; i.v., plasma 24 h): no elevated concentration was observed | AST and ALT concentration ([6]; i.v., plasma 24 h, high dose for 4): slight increase of both AST and ALT | S.p. MIC [5]: 15.1 µM | MIC against Staphylococcus pseudintermedius [5]: 16 µg/mL (≈ 15.1 µM) | Solubility in PBS (in words) [7]: freely soluble | MIC against Staphylococcus aureus (Staphylococcus aureus): 32 µg/mL (≈ 30.3 µM) | MIC against Pseudomonas aeruginosa (Pseudomonas aeruginosa): > 64 µg/mL

CC(C)C[C@@H](NC(=O)[C@H](CCCCN)NC(=O)[C@H](CCCCN)NC(=O)[C@@H](N)CCCCN)C(=O)N[C@H](Cc1cccc2ccccc12)C(=O)N[C@H](Cc1ccccc1)C(=O)N[C@H](Cc1cccc2ccccc12)C(N)=O [Compound 11, Lys-Lys-Lys-Leu-(1-Nal)Ala-Phe-(1-Nal)Ala] (HELM PEPTIDE1{K.K.K.[dL].[O=C([C@@H](Cc1cccc2ccccc12)N[*:1])[*:2]].[dF].[O=C([C@@H](Cc1cccc2ccccc12)N[*:1])[*:2]].[am]}$$$$V2.0)
hemolysis at 1 h, 150 µM (in vitro [1]): 33.3% | IC10 haemolysis (human erythrocytes): 32.8 µM | IC50 (human erythrocytes): > 150 µM | hemolysis at 1 h, 150 µM (in vitro [2]): 40.7% | IC10 haemolysis (canine erythrocytes): 30.4 µM | IC50 (canine erythrocytes): > 150 µM | hemolysis at 1 h, 150 µM (in vitro [3]): 11.3% | IC10 haemolysis (rat erythrocytes): 128.2 µM | IC50 (rat erythrocytes): > 150 µM | hemolysis at 1 h, 150 µM (in vitro [4]): 17.4% | IC10 haemolysis (bovine erythrocytes): 89.2 µM | IC50 (HaCaT cells): 517 µM | IC50 (HeLa cells): 233 µM | IC50 (HepG2 cells): 233 µM | Maximal serum concentration (calculated from dose) ([6]; 1 mg/mL in PBS injected, assuming 17 mL blood volume for a 250 g rat): 15 µM | Whole blood haemolysis in vivo ([6]; in vivo, iv): not observed in vivo | S.p. MIC [5]: 1.9 µM | MIC against Staphylococcus pseudintermedius [5]: 2 µg/mL (≈ 1.89 µM) | Solubility in PBS (in words) [7]: required mild heating and sonication at the highest concentration | MIC against Staphylococcus aureus (Staphylococcus aureus): 8 µg/mL (≈ 7.57 µM) | MIC against Pseudomonas aeruginosa (Pseudomonas aeruginosa): 8 µg/mL (≈ 7.57 µM) | solubility (physchem): 1000 µg/mL (≈ 947 µM)
